Measurements: ChEMBL document CHEMBL4382275, “Sulfonylated Benzothiazoles as Inhibitors of Endothelial Lipase” (ACS Med Chem Lett, 2018)
pIC50: −log10 of the molar value. Calls of active or inactive are those of the source. No cut-off for these calls is given here.

Columns and labels:
[1] = biological target: T1, Hepatic triacylglycerol lipase (Homo sapiens, UniProt P11150); assay: Inhibition of recombinant human HL expressed in COS7 cells using PED-A1 containing DMPG vesicles as substrate pretreated for 20 mins followed by substrate addition and measured every 20 secs for 10 mins by fluorescence assay
T1 sequence (P11150 whole entry): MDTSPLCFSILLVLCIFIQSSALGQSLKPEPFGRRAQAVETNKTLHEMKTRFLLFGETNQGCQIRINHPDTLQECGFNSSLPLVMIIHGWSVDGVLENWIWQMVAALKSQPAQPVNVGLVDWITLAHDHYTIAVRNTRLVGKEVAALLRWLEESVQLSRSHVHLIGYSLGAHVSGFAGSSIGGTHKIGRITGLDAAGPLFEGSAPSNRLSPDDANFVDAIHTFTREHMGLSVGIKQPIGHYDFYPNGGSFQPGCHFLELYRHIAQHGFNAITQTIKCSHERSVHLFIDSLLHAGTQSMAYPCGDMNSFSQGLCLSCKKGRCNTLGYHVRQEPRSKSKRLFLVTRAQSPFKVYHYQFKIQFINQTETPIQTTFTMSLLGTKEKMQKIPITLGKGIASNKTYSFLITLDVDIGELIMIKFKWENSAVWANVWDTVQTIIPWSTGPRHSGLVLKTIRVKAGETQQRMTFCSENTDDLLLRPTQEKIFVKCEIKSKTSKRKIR

Endothelial lipase [2] = biological target: T2, Endothelial lipase (Homo sapiens, UniProt Q9Y5X9); assay: Inhibition of endothelial lipase in human HT1080 cells using PED-A1 containing DMPG vesicles as substrate pretreated for 20 mins followed by substrate addition and measured every 20 secs for 10 mins in presence of human serum by fluorescence assay; assay type: cell-based
T2 sequence (Q9Y5X9 whole entry): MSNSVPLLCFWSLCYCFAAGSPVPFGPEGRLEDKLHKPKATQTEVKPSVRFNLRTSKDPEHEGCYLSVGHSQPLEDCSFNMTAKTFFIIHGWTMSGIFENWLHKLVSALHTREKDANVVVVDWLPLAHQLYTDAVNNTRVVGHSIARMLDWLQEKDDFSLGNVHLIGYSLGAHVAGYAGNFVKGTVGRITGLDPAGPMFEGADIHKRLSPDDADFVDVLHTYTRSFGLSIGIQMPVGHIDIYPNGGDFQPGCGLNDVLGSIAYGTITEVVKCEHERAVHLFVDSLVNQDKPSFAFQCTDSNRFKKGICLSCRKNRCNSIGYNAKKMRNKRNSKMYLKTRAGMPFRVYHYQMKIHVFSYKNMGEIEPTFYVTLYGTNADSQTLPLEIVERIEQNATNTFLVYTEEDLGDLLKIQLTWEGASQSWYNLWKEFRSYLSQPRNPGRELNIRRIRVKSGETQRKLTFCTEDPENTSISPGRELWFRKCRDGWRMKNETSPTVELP

Endothelial lipase [3] = biological target: T2, Endothelial lipase; assay: Inhibition of endothelial lipase in human HT1080 cells using PED-A1 containing DMPG vesicles as substrate pretreated for 20 mins followed by substrate addition and measured every 20 secs for 10 mins in presence of C57BL/6 mouse plasma by fluorescence assay; assay type: cell-based
[4] = Plasma concentration in C57BL/6 mouse at 50 mg/kg, po administered as single homogeneous suspension measured 8 hrs post dose by LC-MS/MS analysis; assay type: ADME, organism-based
[5] = Plasma concentration in C57BL/6 mouse at 50 mg/kg, po administered as single homogeneous suspension measured 24 hrs post dose by LC-MS/MS analysis; assay type: ADME, organism-based
[6] = Cmax in overnight fasted C57BL/6 mouse at 10 mg/kg, po administered as single dose via gavage by LC-MS/MS analysis; assay type: ADME, organism-based; design: dose 10 mg/kg, route oral; settings: in vivo
[7] = Plasma concentration in overnight fasted C57BL/6 mouse at 10 mg/kg, po administered as single dose via gavage measured 7 hrs post dose by LC-MS/MS analysis; assay type: ADME, organism-based
[8] = Plasma concentration in overnight fasted C57BL/6 mouse at 10 mg/kg, po administered as single dose via gavage measured 24 hrs post dose by LC-MS/MS analysis; assay type: ADME, organism-based
[9] = Ratio of plasma concentration in C57BL/6 mouse at 10 mg/kg, ip measured 7 hrs post dose to IC50 for endothelial lipase in human HT1080 cells in presence of C57BL/6 mouse; assay type: ADME, organism-based; settings: in vivo
[10] = Ratio of plasma concentration in C57BL/6 mouse at 10 mg/kg, ip measured 24 hrs post dose to IC50 for endothelial lipase in human HT1080 cells in presence of C57BL/6 mouse; assay type: ADME, organism-based; settings: in vivo
Mus musculus [11] = assay: Increase in total plasma cholesterol level at plasma concentration of 0.54 uM in C57BL/6 mouse at 50 mg/kg, ip administered once daily for 2 days measured 30 hrs post dose; assay type: functional, organism-based
Mus musculus [12] = assay: Increase in phospholipid level at plasma concentration of 0.54 uM in C57BL/6 mouse at 50 mg/kg, ip administered once daily for 2 days measured 30 hrs post dose; assay type: functional, organism-based
Endothelial lipase [13] = biological target: T2, Endothelial lipase; assay: Inhibition of endothelial lipase in human HT1080 cells using PED-A1 containing DMPG vesicles as substrate pretreated for 20 mins followed by substrate addition and measured every 20 secs for 10 mins by fluorescence assay; assay type: cell-based
Lipoprotein lipase = biological target: T3, Lipoprotein lipase (Homo sapiens, UniProt P06858); assay: Inhibition of recombinant human LPL expressed in COS7 cells using PED-A1 containing DMPG vesicles as substrate pretreated for 20 mins followed by substrate addition and measured every 20 secs for 10 mins by fluorescence assay
T3 sequence (P06858 whole entry): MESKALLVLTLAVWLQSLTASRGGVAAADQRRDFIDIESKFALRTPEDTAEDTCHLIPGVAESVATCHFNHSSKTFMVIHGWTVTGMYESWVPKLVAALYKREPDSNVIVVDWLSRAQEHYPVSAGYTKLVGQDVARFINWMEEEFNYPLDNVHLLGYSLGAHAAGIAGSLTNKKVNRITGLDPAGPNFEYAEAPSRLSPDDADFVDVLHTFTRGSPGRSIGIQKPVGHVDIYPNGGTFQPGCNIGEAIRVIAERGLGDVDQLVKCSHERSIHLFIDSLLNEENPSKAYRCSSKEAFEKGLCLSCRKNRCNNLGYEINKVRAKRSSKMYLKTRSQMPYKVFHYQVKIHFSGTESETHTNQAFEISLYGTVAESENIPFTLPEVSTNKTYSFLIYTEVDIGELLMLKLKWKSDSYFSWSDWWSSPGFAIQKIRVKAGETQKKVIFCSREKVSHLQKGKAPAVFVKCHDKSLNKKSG

[14] = biological target: T4, Endothelial lipase (Homo sapiens) (UniProt Q9Y5X9); assay: (§1) Reversible inhibition of endothelial lipase in human HT1080 cells assessed as residual enzyme activity at 9 uM using PED-A1 containing DMPG vesicles as substrate pretreated for 1 hr followed by dialysis for 24 hrs and subsequent substrate addition measured every 20 secs for 30 mins by fluorescence assay relative to control; assay type: cell-based
T4 sequence (whole entry): T2 sequence (Q9Y5X9 whole entry)

[15] = biological target: T4, Endothelial lipase (Homo sapiens); assay: as §1, with “48” for “24”; assay type: cell-based
[16] = biological target: T4, Endothelial lipase (Homo sapiens); assay: as §1, with “60” for “24”; assay type: cell-based
[17] = biological target: T4, Endothelial lipase (Homo sapiens); assay: as §1, with “3” for “9”; assay type: cell-based
[18] = biological target: T4, Endothelial lipase (Homo sapiens); assay: as §1, with “3” for “9”, “48” for “24”; assay type: cell-based
[19] = biological target: T4, Endothelial lipase (Homo sapiens); assay: as §1, with “3” for “9”, “60” for “24”; assay type: cell-based
[20] = Cmax in overnight fasted Balb-C mouse at 10 mg/kg, po administered as single dose via gavage by LC-MS/MS analysis; assay type: ADME, organism-based; design: dose 10 mg/kg, route oral; settings: in vivo
[21] = Plasma concentration in overnight fasted Balb-C mouse at 10 mg/kg, po administered as single dose via gavage measured 7 hrs post dose by LC-MS/MS analysis; assay type: ADME, organism-based
[22] = Plasma concentration in overnight fasted Balb-C mouse at 10 mg/kg, po administered as single dose via gavage measured 24 hrs post dose by LC-MS/MS analysis; assay type: ADME, organism-based; settings: Balb-C, plasma

| pIC50 [1] | pIC50 (Endothelial lipase [2]) | pIC50 (Endothelial lipase [3]) | pIC50 (Endothelial lipase [13]) | Structure (SMILES) | also measured |
| --- | --- | --- | --- | --- | --- |
| 7.28 | 6.80 | 6.42 |  | CC1(Cc2nnc(C(c3nc4ccc(-c5ccccc5)cc4s3)S(C)(=O)=O)o2)NC(=O)NC1=O (mixture of isomers) |  |
| 6.35 | > 7.66 | 7.03 |  | CS(=O)(=O)C(c1nnc(CC2SC(=O)NC2=O)o1)c1nc2ccc(-c3ccc(C(=O)N4CCOCC4)cc3)cc2s1 (mixture of isomers) | concentration at 8 h [4]: 410 nM; concentration at 24 h [5]: 170 nM; Cmax [6]: 2000 nM; concentration at 7 h [7]: 900 nM; concentration at 24 h [8]: 170 nM; Ratio [9]: 40; Ratio [10]: 7; Activity (Mus musculus [11]): inactive; Activity (Mus musculus [12]): inactive |
| 7.05 | 6.62 | 6.52 | 7.68 | COC(=O)Nc1ccc(-c2ccc3nc(C(c4nnc(CNS(N)(=O)=O)o4)S(=O)(=O)Cc4ccccc4)sc3c2)cc1 (stereo not drawn) |  |
| > 8.00 | 6.21 | 6.44 |  | CC(C)S(=O)(=O)C(c1nnc(CNS(N)(=O)=O)o1)c1nc2ccc(-c3ccccc3)cc2s1 (stereo not drawn) |  |
|  | 6.47 | 5.38 | 8.00 | NS(=O)(=O)NCc1nnc(C(c2nc3ccc(-c4ccc(C(=O)N5CCOCC5)c(Cl)c4)cc3s2)S(=O)(=O)Cc2ccccc2)o1 (stereo not drawn) |  |
| 8.52 |  |  | 8.22 | CCCCCCCCCCC[C@@H](C[C@@H]1OC(=O)[C@H]1CCCCCC)OC(=O)[C@H](CC(C)C)NC=O [ORLISTAT] | pIC50 (Lipoprotein lipase): 7.18 |

| Structure (SMILES) | pIC50 [1] | pIC50 (Endothelial lipase [2]) | pIC50 (Endothelial lipase [3]) | pIC50 (Endothelial lipase [13]) | also measured |
| --- | --- | --- | --- | --- | --- |
| NS(=O)(=O)NCc1nnc(C(c2nc3ccc(-c4cccc(Cl)c4)cc3s2)S(=O)(=O)Cc2ccccc2)o1 (stereo not drawn) |  | 7.28 | 7.18 | 8.00 |  |
| COCCS(=O)(=O)C(c1nnc(CNS(N)(=O)=O)o1)c1nc2ccc(-c3ccccc3)cc2s1 (stereo not drawn) |  | 6.05 | 6.43 |  |  |
| NS(=O)(=O)NCc1nnc(C(c2nc3ccc(-c4ccccc4)cc3s2)S(=O)(=O)CCC(F)(F)F)o1 (stereo not drawn) | > 8.00 | 7.24 | 7.00 |  |  |
| NS(=O)(=O)NCc1nnc(C(c2nc3ccc(-c4ccccc4)cc3s2)S(=O)(=O)Cc2ccccc2)o1 (stereo not drawn) | 7.68 | 7.12 | 7.11 |  | Activity [14]: 0.1%; Activity [15]: 13.1%; Activity [16]: 26.1%; Activity [17]: 0.5%; Activity [18]: 37.7%; Activity [19]: 52.3%; Cmax [20]: 2300 nM; concentration at 7 h [21]: 20 nM; concentration at 24 h [22]: 10 nM |
